# Details: for aqueous solubility: pH 6.8
smiles,measurement,value
Cc1cc(C)n2nc(C)c(C(=O)NCCc3nnc(C)s3)c2n1,MDR1-MDCK efflux ratio,6.5
same,"intrinsic clearance, human liver microsomes",≤ 4.74 mL/min/kg
same,"intrinsic clearance, rat liver microsomes",33.1 mL/min/kg
CCc1ccccc1NC(=O)c1cc(C)nc2onc(C)c12,MDR1-MDCK efflux ratio,0.67
same,"intrinsic clearance, human liver microsomes",51.8 mL/min/kg
same,"intrinsic clearance, rat liver microsomes",53.1 mL/min/kg
same,aqueous solubility,13.3 µg/mL
CCc1nc2cc(-c3c(OC)cccc3OC)ccc2o1,MDR1-MDCK efflux ratio,0.46
same,"intrinsic clearance, human liver microsomes",49.6 mL/min/kg
same,"intrinsic clearance, rat liver microsomes",3760 mL/min/kg
same,aqueous solubility,19 µg/mL
Cc1cc(N(CCO)CCCO)ncc1Br,MDR1-MDCK efflux ratio,0.766
same,"intrinsic clearance, human liver microsomes",12.4 mL/min/kg
same,"intrinsic clearance, rat liver microsomes",478 mL/min/kg
COc1cccc(NC(=O)[C@H]2CCCN(S(=O)(=O)c3ccc(C)cc3)C2)c1,MDR1-MDCK efflux ratio,2.68
same,"intrinsic clearance, human liver microsomes",38.1 mL/min/kg
same,"intrinsic clearance, rat liver microsomes",2820 mL/min/kg
same,aqueous solubility,10 µg/mL
NCc1ccc(-n2cnc3ccccc32)cc1Cl,"intrinsic clearance, human liver microsomes",13 mL/min/kg
same,"intrinsic clearance, rat liver microsomes",36.1 mL/min/kg
CNC(=O)Cc1nc(-c2cncc(C)c2)cs1,MDR1-MDCK efflux ratio,0.978
same,"intrinsic clearance, human liver microsomes",5.86 mL/min/kg
same,"intrinsic clearance, rat liver microsomes",14.5 mL/min/kg
same,aqueous solubility,37.6 µg/mL
Cc1cc(C)c2c(c1)CCCN2C(=O)c1ccc(-c2nnc(C)o2)cc1,MDR1-MDCK efflux ratio,0.685
same,"intrinsic clearance, human liver microsomes",149 mL/min/kg
same,"intrinsic clearance, rat liver microsomes",2090 mL/min/kg
same,aqueous solubility,52.2 µg/mL
CSc1cnc(N2CCCN(c3ncc(SC)cn3)CC2)nc1,MDR1-MDCK efflux ratio,0.648
same,"intrinsic clearance, human liver microsomes",131 mL/min/kg
same,"intrinsic clearance, rat liver microsomes",1850 mL/min/kg
Cc1ccc(C(=O)Nc2ccccc2C#N)cc1,"intrinsic clearance, human liver microsomes",88.2 mL/min/kg
same,"intrinsic clearance, rat liver microsomes",173 mL/min/kg
same,aqueous solubility,10.4 µg/mL
CN(c1ncc(Br)cn1)C1CCS(=O)CC1 (stereo not drawn),MDR1-MDCK efflux ratio,0.943
same,"intrinsic clearance, human liver microsomes",≤ 4.74 mL/min/kg
same,"intrinsic clearance, rat liver microsomes",25.7 mL/min/kg
same,aqueous solubility,76.3 µg/mL
COc1cc(F)c(NCC(=O)Nc2ccc(C)cc2)cc1OC,MDR1-MDCK efflux ratio,0.669
same,"intrinsic clearance, human liver microsomes",31.7 mL/min/kg
same,"intrinsic clearance, rat liver microsomes",269 mL/min/kg
same,aqueous solubility,47.6 µg/mL
CS(=O)(=O)N1CCN(Cc2cc3c(cc2O)OCO3)CC1,"intrinsic clearance, human liver microsomes",28.6 mL/min/kg
same,"intrinsic clearance, rat liver microsomes",278 mL/min/kg
c1cnc(NCc2cnc3ccsc3c2)nc1,MDR1-MDCK efflux ratio,0.589
same,"intrinsic clearance, human liver microsomes",12.5 mL/min/kg
same,"intrinsic clearance, rat liver microsomes",52.9 mL/min/kg
N#CCN(CN1C(=O)CC2(CCCC2)C1=O)C1CC1,aqueous solubility,38.5 µg/mL
CC(C)NC(=O)c1cc(-c2ccccc2)n(-c2ccccn2)n1,MDR1-MDCK efflux ratio,0.762
same,"intrinsic clearance, human liver microsomes",8.11 mL/min/kg
same,"intrinsic clearance, rat liver microsomes",80.5 mL/min/kg
same,aqueous solubility,54.1 µg/mL
CCc1nccn1Cc1nc(N)nc(N(C)C)n1,MDR1-MDCK efflux ratio,18.5
same,"intrinsic clearance, human liver microsomes",≤ 4.74 mL/min/kg
same,"intrinsic clearance, rat liver microsomes",17.3 mL/min/kg
C=CC(=O)N1CCC[C@H](n2c(=O)n(-c3ccc(Oc4ccccc4)cc3)c3c(N)ncnc32)C1,MDR1-MDCK efflux ratio,5.79
same,"fraction unbound, human plasma",0.0963
same,"fraction unbound, rat plasma",0.0189
same,"intrinsic clearance, human liver microsomes",166 mL/min/kg
same,"intrinsic clearance, rat liver microsomes",516 mL/min/kg
same,aqueous solubility,56.4 µg/mL
COCC1(CNC(=O)c2ccc(-n3cccn3)cc2)CCC1,MDR1-MDCK efflux ratio,0.596
same,"intrinsic clearance, human liver microsomes",18.2 mL/min/kg
same,"intrinsic clearance, rat liver microsomes",492 mL/min/kg
CN(C)C(=O)COC(=O)Cc1ccc(OC(=O)c2ccc(NC(=N)N)cc2)cc1,MDR1-MDCK efflux ratio,0.707
same,"intrinsic clearance, human liver microsomes",102 mL/min/kg
same,"intrinsic clearance, rat liver microsomes",936 mL/min/kg
same,aqueous solubility,77.6 µg/mL
c1ccc2[nH]c(C3CCNCC3)nc2c1,aqueous solubility,56.3 µg/mL
Cc1nn(-c2ccccn2)c2nc(C3CC3)cc(C(=O)O)c12,MDR1-MDCK efflux ratio,2.52
same,"intrinsic clearance, human liver microsomes",4.89 mL/min/kg
same,"intrinsic clearance, rat liver microsomes",≤ 10.7 mL/min/kg
same,aqueous solubility,51.2 µg/mL
c1nc(Nc2ccc3c(c2)OCCCO3)c2sccc2n1,"intrinsic clearance, human liver microsomes",92.1 mL/min/kg
same,"intrinsic clearance, rat liver microsomes",1570 mL/min/kg
same,aqueous solubility,51 µg/mL
CN(Cc1ccncc1)Cc1cc2ccccc2nc1O,MDR1-MDCK efflux ratio,2.51
same,"intrinsic clearance, human liver microsomes",15.4 mL/min/kg
same,"intrinsic clearance, rat liver microsomes",222 mL/min/kg
same,aqueous solubility,48.6 µg/mL
Cc1ccnc2[nH]c(CSCc3ccccc3)nc12,"intrinsic clearance, human liver microsomes",84.4 mL/min/kg
same,"intrinsic clearance, rat liver microsomes",647 mL/min/kg
COc1cccc(C)c1C(=O)N(C)Cc1ncc[nH]1,MDR1-MDCK efflux ratio,6.32
same,"intrinsic clearance, human liver microsomes",≤ 4.74 mL/min/kg
same,"intrinsic clearance, rat liver microsomes",425 mL/min/kg
Cc1cccc2sc(NC(=O)C(C)(C)C)nc12,MDR1-MDCK efflux ratio,0.352
same,"intrinsic clearance, human liver microsomes",36.5 mL/min/kg
same,"intrinsic clearance, rat liver microsomes",207 mL/min/kg
same,aqueous solubility,22.6 µg/mL
N#CCCCN1CCN(c2cc(C#N)ccn2)CC1,MDR1-MDCK efflux ratio,0.56
same,"intrinsic clearance, human liver microsomes",≤ 4.74 mL/min/kg
same,"intrinsic clearance, rat liver microsomes",180 mL/min/kg
same,aqueous solubility,41.2 µg/mL
